Key:
[1] = tested on: hESC-derived cortical neuroepithelium; assay: Notch signal inhibition in hESC-derived cortical neuroepithelium, neural stem cell/progenitor and neuron markers; assay type: cell-based, human; conditions: 10 μM DAPT, days 70-77
Excerpt: (A-C) Immunostaining of Pax6 and Sox2 in apical and basal (SVZ) neural stem cells/progenitors within the hESC-derived cortical neuroepithelium on day 91. The majority of Sox2 positive cells express Pax6 (C). (D-F) Effects of Notch signal inhibition on the expression of neural stem cells/progenitor and neuron markers in cortical neuroepithelium. […] An increase of cortical neuroepithelium thickness also observed after the treatment (F). ***P<0.001, Student t tests between with DAPT (n=6) and without DAPT (n=5) treatment. (G) Schematic of oRG neural stem cells/progenitors in the human fetal outer SVZ. (H and H′) Phospho-vimentin+ neural stem cells/progenitors in the SVZ expressed Sox2. (I) Phospho-vimentin+ neural stem cells/progenitors in the SVZ with a long […] process extending toward the pial surface. (J) Phospho-vimentin+ SVZ neural stem cells/progenitors with a basal process carried a pericentin+ centrosome in the neurons. During mitosis, two pericentin+ centrioles were found for dividing cells. […] (Scale bars, 100 μm in A-E; 25 μm in H-K.)
Cortical neuroepithelium induced from hESCs were subjected to culture under the following conditions. On day 18, the cell aggregates were transferred to a 9-cm Petri dish (non-cell adhesive surface coat) and further cultured in DMEM/F12 medium (Gibco/Invitrogen) supplemented with 1% N2 supplement (Gibco/Invitrogen), 1% lipid concentrate (Chemically Defined Lipid Concentrate, Gibco/Invitrogen), 0.25 mg/mL Fungizone, 100 U/mL penicillin, and 100 μg/mL streptomycin at 37° C. in the presence of 5% CO2 and 40% O2. From day 35, 10% FBS, 5 μg/mL heparin, and 1% Matrigel growth factor-reduced (BD Biosciences) were also added to the medium. To prevent cell death in the central portions of cell aggregates, the aggregates were cut into half-size with fine forceps under a dissecting microscope every 2 wk after day 35 and were cultured using a lumox culture dish (SARSTEDT; O2 penetrating) after day 56. From day 70, the concentration of Matrigel was increased (final 2%) and B27 supplement (Gibco/Invitrogen) was added to the medium.

[2] = tested on: hESC-derived cortical neuroepithelium; assay: Rolling morphogenesis of hESC-derived cortical neuroepithelium with ROCK inhibitor; assay type: cell-based, human; conditions: P<0.001 vs control, Fisher's exact test, dihydrochloride
Excerpt: (A-I) Asymmetric progression of rounding morphogenesis of hESC-derived cortical neuroepithelium. Arrows indicate boundary of a cortical neuroepithelium domain in A and rolling epithelium in B-D. Arrowheads indicate rolling epithelium in E. Arrows indicate rounding movements of the neuroepithelium in F-I. (J-L) Effect of the ROCK inhibitor Y-27632 on the rolling of cortical neuroepithelium. […] Treatment group, n=187 neuroepithelium domains; control group, n=130. (M and N) The rolling shape was preferentially observed on the side with strong expression of Otx2 and Coup-TF1 (dorsal and caudal markers). (O-Q) Adjacent formation of neuroepithelium structures of cortex (Pax6+) and LGE (Gsh2+; with GAD65^+ GABAergic neurons underneath) on day 35. The cortical side contacting the LGE domain was opposite to the side with strong rolling (arrow). (R) Interkinetic nuclear migration in the hESC-derived cortical neuroepithelium on day 24 (two-photon imaging). Visualized with partial mixing of pax6::venus reporter hESCs with nonlabeled hESCs. Two daughter cells with both apical and basal processes were generated from an apically dividing progenitor. (Scale bars, 200 μm in A; 100 μm in B-H and J-N; 200 μm in O-Q.) Nuclear counter staining (blue), DAPI.

[3] = tested on: Human ES cells (KhES-1) aggregates; assay: Cortical hem formation in human ES cell aggregates with Wnt signal enhancer, immunohistostaining on day 42; assay type: cell-based; conditions: 3 μM CHIR99021 alone, day 18 to day 42
Protocol: Human ES cells (KhES-1; a fluorescence protein gene Venus is knocked-in a telencephalon specific gene Foxg1) were dispersed to single cells by a trypsin treatment, and according to the SFEBq method (Nakano et al, Cell Stem Cell, 2012), aggregates were formed and subjected to suspension aggregate culture at 37° C. in the presence of 5% CO2 for differentiation induction. The dispersed 9000 human ES cells were seeded in each well of a V bottom 96 well plate applied with a low cell adsorptive surface coating, and a growth factor-free G-MEM medium (Gibco/Invitrogen) added with 20% KSR (Knockout Serum Replacement), 0.1 mM non-essential amino acid solution (Gibco/Invitrogen), 1 mM sodium pyruvate solution (Sigma), and 0.1 mM 2-mercaptoethanol was used as the medium for differentiation induction. […] The aggregate was analyzed on day 1 and day 34 from the start of differentiation induction, and analyzed by immunohistostaining on day 42. […] The culture medium used for the culture from day 18 to day 42 was DMEM/F12 medium (Gibco/Invitrogen) added with 1% N2 supplement (Gibco/Invitrogen), 1% lipid concentrate (Chemically defined lipid concentrate, Gibco/Invitrogen), 10% FBS, 5 μg/ml heparin, 3 μM GSK-3β inhibitor CHIR99021 (Wnt signal enhancer) and the aggregates were analyzed by immunohistostaining on day 42.

[4] = tested on: Human ES cells (KhES-1) aggregates; assay: Induction of basal ganglia progenitor tissue (LGE/MGE) in human ES cell aggregates by Shh signal agonist, immunohistostaining on day 35; assay type: cell-based
Protocol: Human ES cells (KhES-1; a fluorescence protein gene Venus is knocked-in a telencephalon specific gene Foxg1) were dispersed to single cells by a trypsin treatment, and according to the SFEBq method (Nakano et al, Cell Stem Cell, 2012), aggregates were formed and subjected to suspension aggregate culture at 37° C. in the presence of 5% CO2 for differentiation induction. The dispersed 9000 human ES cells were seeded in each well of a V bottom 96 well plate applied with a low cell adsorptive surface coating, and a growth factor-free G-MEM medium (Gibco/Invitrogen) added with 20% KSR (Knockout Serum Replacement), 0.1 mM non-essential amino acid solution (Gibco/Invitrogen), 1 mM sodium pyruvate solution (Sigma), and 0.1 mM 2-mercaptoethanol was used as the medium for differentiation induction. To suppress dispersion-induced cell death, 20 μM of a ROCK inhibitor Y-27632 was added for the first 3 days of differentiation induction, and the concentration thereof was reduced to half for the next 3 days. From day 0 to day 18 after the start of the differentiation induction, Wnt signal inhibitor IWR-1-end (3 μM) and TGFβ signal inhibitor SB431542 (5 μM) were added and allowed to react. On day 18 from the start of differentiation induction, these aggregates were transferred to a 9 cm petri dish applied with low cell-adhesive surface coating, and suspension culture was performed at 37° C., in the presence of 5% CO2, 40% O2. From day 18 to day 35, DMEM/F12 medium (Gibco/Invitrogen) added with 1% N2 supplement (Gibco/Invitrogen), and 1% lipid concentrate (Chemically defined lipid concentrate, Gibco/Invitrogen) was used. From day 35, the medium further added with 10% FBS, 5 μg/ml heparin, and 1% Matrigel growth factor reduced (BD Bioscience) was used. The aggregate was analyzed on day 1 and day 34 from the start of differentiation induction, and analyzed by immunohistostaining on day 42.
Up to day 35 of differentiation induction, cells were cultured under culture conditions similar to those of Example 1. That is, human ES cell aggregates were cultured in a V bottom 96 well plate up to 18 days after differentiation induction, suspended aggregates were transferred to a non-cell adhesive petri dish (diameter […]), and suspension culture was performed at 37° C. in the presence of 5% CO2, 40% O2 from day 18 to day 35 of differentiation induction. However, Sonic hedgehog (Shh) signal agonist SAG was added to the culture medium of Example 1 at a final concentration of 30 nM or 500 nM only in the period of from day 15 to day 21 and allowed to react. The aggregate was analyzed by immunohistostaining on day 35.
Up to day 35 of differentiation induction, cells were cultured under culture conditions similar to those of Example 2. That is, human ES cell aggregates were cultured in a V bottom 96 well plate up to 18 days after differentiation induction, suspended aggregates were transferred to a non-cell adhesive petri dish (diameter 9 cm), and suspension culture was performed at 37° C. in the presence of 5% CO2, 40% O2, from day 18 to day 35 of differentiation induction. However, Shh signal agonist SAG was added to the culture medium at a concentration of 30 nM only in the period of from day 15 to day 21 of differentiation induction. The aggregate was analyzed by immunohistostaining on day 35.
Ventralization of cortical neuroepithelium was performed by adding hedgehog agonist SAG (30 nM or 500 nM) during culture days 15-21. The cell aggregates were fixed on culture day 35.

[5] = 30 nM SAG, day 15 to day 21, analysed day 35

C[C@H](NC(=O)Cc1cc(F)cc(F)c1)C(=O)N[C@H](C(=O)OC(C)(C)C)c1ccccc1 [DAPT]
Satb2+ neurons [1]: increased | Sox2+ Tbr2− cells after the treatment [1]: rarely remained | Sox2− Tbr2+ intermediate neural stem cells/progenitors [1]: increased | cortical neuroepithelium thickness ([1]; P<0.001): increase

C[C@@H](N)[C@H]1CC[C@H](C(=O)Nc2ccncc2)CC1.Cl.Cl [Y-27632, (+)-(R)-trans-4-(1-aminoethyl)-N-(4-pyridyl)cyclohexanecarboxamide dihydrochloride]
rolling morphogenesis of cortical neuroepithelium [2]: Attenuation of rolling morphogenesis | rolling morphogenesis of cortical neuroepithelium ([2]; listed as ROCK inhibitor): attenuated

Cc1cnc(-c2cnc(NCCNc3ccc(C#N)cn3)nc2-c2ccc(Cl)cc2Cl)[nH]1 [CHIR99021, 6-[[2-[[4-(2,4-Dichlorophenyl)-5-(5-methyl-1H-imidazol-2-yl)-2-pyrimidinyl]amino]ethyl]amino]-3-pyridinecarbonitrile]
aggregates with selective formation of cortical hem [3]: not less than 80%

CNC1CCC(N(Cc2cccc(-c3ccncc3)c2)C(=O)c2sc3ccccc3c2Cl)CC1 (stereo not shown) [SAG]
Gsh2 (LGE marker) expression in foxg1::Venus-expressing neural epithelium ([4]; 30 nM SAG for days 15-21): a substantial portion of foxg1::Venus-expressing neural epithelium expressed Gsh2 | aggregates with Gsh2 positive LGE neuroepithelium [4, 5]: not less than 70% | aggregates with continuous self-formation of cerebral cortex and basal ganglion in one aggregate [4, 5]: not less than 50% | percentage of Gsh2+ neuroepithelium in Foxg1+ telencephalic neuroepithelium ([4]; 30 nM SAG, days 15-21): increased | percentage of Pax6+ neuroepithelium in Foxg1+ telencephalic neuroepithelium ([4]; 30 nM SAG, days 15-21): partially suppressed | aggregates with Foxg1::venus positive and Nkx2.1 positive MGE neuroepithelium ([4]; 500 nM SAG, day 15 to day 21, analysed day 35): not less than 80% | Nkx2.1+ neuroepithelium as share of Foxg1+ telencephalic NE ([4]; 500 nM SAG, days 15-21): 40-50% | expression of both Pax6 and Gsh2 ([4]; 500 nM SAG, days 15-21): efficiently suppressed | MGE marker Nkx2.1 expression ([4]; high concentrations of SAG (500 nM), days 15-21): induced the MGE marker Nkx2.1 at the cost of Pax6 and Gsh2 expression
